In ChEMBL document CHEMBL5543109, “Novel β-Hairpin Antimicrobial Peptide Containing the β-Turn Sequence of -NG- and the Tryptophan Zippers Facilitate Self-Assembly into Nanofibers, Exhibiting Excellent Antimicrobial Performance” (J Med Chem, 2024):
Converted amounts (≈) assume the structure as drawn.

What was measured:
Escherichia coli [1] = experiment: Antibacterial activity against Escherichia coli ATCC 25922 incubated for 18 hrs by broth microdilution method; format: functional
Pseudomonas aeruginosa [2] = experiment: Bactericidal activity against Pseudomonas aeruginosa ATCC 27853 incubated for 18 hrs by broth microdilution method; format: functional
Staphylococcus aureus [3] = experiment: Antibacterial activity against Staphylococcus aureus at 2 times MIC preincubated for 1 hr with trypsin followed by enzyme inactivation and bacterial addition and measured after 18 hrs; format: functional; settings: time 19 hrs
[4] = Self-assembly property of compound in water assessed as beta-sheet content; format: physicochemical
Klebsiella pneumoniae [5] = experiment: Bactericidal activity against Klebsiella pneumoniae ATCC 700603 incubated for 18 hrs by broth microdilution method; format: functional
Staphylococcus aureus [6] = experiment: Bactericidal activity against Staphylococcus aureus ATCC 25923 incubated for 18 hrs by broth microdilution method; format: functional
Escherichia coli [7] = experiment: Bactericidal activity against Escherichia coli ATCC 25922 incubated for 18 hrs by broth microdilution method; format: functional
[8] = test system: Staphylococcus epidermidis; experiment: Bactericidal activity against Staphylococcus epidermidis ATCC 12228 incubated for 18 hrs by broth microdilution method; format: functional
Erythrocyte = experiment: Hemolytic activity in mouse erythrocytes assessed as concentration required to cause 10% hemolysis incubated for 1 hr; format: toxicity, cell-based
Pseudomonas aeruginosa [9] = experiment: Antibacterial activity against Pseudomonas aeruginosa ATCC 27853 incubated for 18 hrs by broth microdilution method; format: functional
Staphylococcus aureus [10] = experiment: Antibacterial activity against Staphylococcus aureus at 2 times MIC preincubated for 1 hr with chymotrypsin followed by enzyme inactivation and bacterial addition and measured after 18 hrs; format: functional; settings: time 19 hrs
[11] = test system: Staphylococcus epidermidis; experiment: Antibacterial activity against Staphylococcus epidermidis ATCC 12228 incubated for 18 hrs by broth microdilution method; format: functional
Klebsiella pneumoniae [12] = experiment: Antibacterial activity against Klebsiella pneumoniae ATCC 700603 incubated for 18 hrs by broth microdilution method; format: functional
[13] = Self-assembly property of compound in 50% TFE assessed as beta-sheet content; format: physicochemical
Bacillus subtilis [14] = experiment: Bactericidal activity against Bacillus subtilis ATCC 23857 incubated for 18 hrs by broth microdilution method; format: functional
Staphylococcus aureus [15] = experiment: Antibacterial activity against Staphylococcus aureus ATCC 25923 incubated for 18 hrs by broth microdilution method; format: functional
Bacillus subtilis [16] = experiment: Antibacterial activity against Bacillus subtilis ATCC 23857 incubated for 18 hrs by broth microdilution method; format: functional
[17] = Self-assembly property of compound in PBS assessed as beta-sheet content; format: physicochemical; settings: buffer
[18] = Retention time of the compound; format: physicochemical
[19] = Self-assembly property of compound in PBS assessed as beta-sheet nanofibers formation incubated for 1 hr by Thioflavin T based fluorescence spectrophotometer analysis; format: physicochemical; settings: buffer, dose 0.5-1.5 µM

Row | SMILES | MIC (Escherichia coli [1]) | MBC (Pseudomonas aeruginosa [2]) | Activity (Staphylococcus aureus [3]) | Activity [4] | MBC (Klebsiella pneumoniae [5]) | MBC (Staphylococcus aureus [6]) | MBC (Escherichia coli [7]) | MBC [8] | MHC (Erythrocyte) | MIC (Pseudomonas aeruginosa [9]) | Activity (Staphylococcus aureus [10]) | MIC [11] | MIC (Klebsiella pneumoniae [12]) | Activity [13] | MBC (Bacillus subtilis [14]) | MIC (Staphylococcus aureus [15]) | MIC (Bacillus subtilis [16]) | Activity [17] | Retention_time [18] | Activity [19]
1 | NCCCC[C@@H](N)C(=O)N[C@H](Cc1c[nH]c2ccccc12)C(=O)N[C@H](CCCCN)C(=O)N[C@H](Cc1c[nH]c2ccccc12)C(=O)N[C@H](CCCCN)C(=O)N1CCC[C@@H]1C(=O)NCC(=O)N[C@H](CCCCN)C(=O)N[C@H](Cc1c[nH]c2ccccc12)C(=O)N[C@H](CCCCN)C(=O)N[C@H](Cc1c[nH]c2ccccc12)C(=O)N[C@H](CCCCN)C(N)=O | 8 µM (≈ 13.5 µg/mL) | 32 µM (≈ 53.9 µg/mL) | 100% | 35% | 16 µM (≈ 27 µg/mL) | 32 µM (≈ 53.9 µg/mL) | 8 µM (≈ 13.5 µg/mL) | 16 µM (≈ 27 µg/mL) | > 512 µM | 8 µM (≈ 13.5 µg/mL) | 100% | 4 µM (≈ 6.74 µg/mL) | 16 µM (≈ 27 µg/mL) | 30.4% | 8 µM (≈ 13.5 µg/mL) | 16 µM (≈ 27 µg/mL) | 4 µM (≈ 6.74 µg/mL) | 47% | 11.539 min | 
2 | NCCCC[C@@H](N)C(=O)N[C@H](Cc1c[nH]c2ccccc12)C(=O)N[C@H](CCCCN)C(=O)N[C@H](Cc1c[nH]c2ccccc12)C(=O)N[C@H](CCCCN)C(=O)N1CCC[C@H]1C(=O)NCC(=O)N[C@H](CCCCN)C(=O)N[C@H](Cc1c[nH]c2ccccc12)C(=O)N[C@H](CCCCN)C(=O)N[C@H](Cc1c[nH]c2ccccc12)C(=O)N[C@H](CCCCN)C(N)=O | 8 µM (≈ 13.5 µg/mL) | 128 µM (≈ 216 µg/mL) | 100% | 84.3% | 64 µM (≈ 108 µg/mL) | 32 µM (≈ 53.9 µg/mL) | 16 µM (≈ 27 µg/mL) | 8 µM (≈ 13.5 µg/mL) | > 512 µM | 64 µM (≈ 108 µg/mL) | 100% | 4 µM (≈ 6.74 µg/mL) | 32 µM (≈ 53.9 µg/mL) | 39.2% | 8 µM (≈ 13.5 µg/mL) | 32 µM (≈ 53.9 µg/mL) | 2 µM (≈ 3.37 µg/mL) | 80.2% | 11.212 min | 
3 | NCCCC[C@@H](N)C(=O)N[C@H](Cc1c[nH]c2ccccc12)C(=O)N[C@H](CCCCN)C(=O)N[C@H](Cc1c[nH]c2ccccc12)C(=O)N[C@H](CCCCN)C(=O)N[C@@H](CC(N)=O)C(=O)NCC(=O)N[C@H](CCCCN)C(=O)N[C@H](Cc1c[nH]c2ccccc12)C(=O)N[C@H](CCCCN)C(=O)N[C@H](Cc1c[nH]c2ccccc12)C(=O)N[C@H](CCCCN)C(N)=O | 8 µM (≈ 13.6 µg/mL) | 128 µM (≈ 218 µg/mL) | 100% |  | 128 µM (≈ 218 µg/mL) | 64 µM (≈ 109 µg/mL) | 8 µM (≈ 13.6 µg/mL) | 8 µM (≈ 13.6 µg/mL) | > 512 µM | 32 µM (≈ 54.5 µg/mL) | 100% | 4 µM (≈ 6.81 µg/mL) | 64 µM (≈ 109 µg/mL) |  | 8 µM (≈ 13.6 µg/mL) | 16 µM (≈ 27.2 µg/mL) | 2 µM (≈ 3.4 µg/mL) |  | 11.03 min | 
4 | NCCCC[C@@H](N)C(=O)N[C@H](Cc1c[nH]c2ccccc12)C(=O)N[C@H](CCCCN)C(=O)N[C@H](Cc1c[nH]c2ccccc12)C(=O)N[C@H](CCCCN)C(=O)N1CCC[C@@H]1C(=O)N1CCC[C@H]1C(=O)N[C@H](CCCCN)C(=O)N[C@H](Cc1c[nH]c2ccccc12)C(=O)N[C@H](CCCCN)C(=O)N[C@H](Cc1c[nH]c2ccccc12)C(=O)N[C@H](CCCCN)C(N)=O | 8 µM (≈ 13.8 µg/mL) | 32 µM (≈ 55.2 µg/mL) | 100% |  | 16 µM (≈ 27.6 µg/mL) | 64 µM (≈ 110 µg/mL) | 8 µM (≈ 13.8 µg/mL) | 8 µM (≈ 13.8 µg/mL) | > 512 µM | 4 µM (≈ 6.9 µg/mL) | 100% | 4 µM (≈ 6.9 µg/mL) | 16 µM (≈ 27.6 µg/mL) |  | 8 µM (≈ 13.8 µg/mL) | 32 µM (≈ 55.2 µg/mL) | 4 µM (≈ 6.9 µg/mL) |  | 11.03 min | 
5 | NCCCC[C@@H](NC(=O)[C@H](N)Cc1c[nH]c2ccccc12)C(=O)N[C@H](Cc1c[nH]c2ccccc12)C(=O)N[C@H](CCCCN)C(=O)N[C@H](Cc1c[nH]c2ccccc12)C(=O)N1CCC[C@@H]1C(=O)NCC(=O)N[C@H](Cc1c[nH]c2ccccc12)C(=O)N[C@H](CCCCN)C(=O)N[C@H](Cc1c[nH]c2ccccc12)C(=O)N[C@H](CCCCN)C(=O)N[C@H](Cc1c[nH]c2ccccc12)C(N)=O | 4 µM (≈ 7.2 µg/mL) | 32 µM (≈ 57.6 µg/mL) | 100% | 30.5% | 8 µM (≈ 14.4 µg/mL) | 8 µM (≈ 14.4 µg/mL) | 4 µM (≈ 7.2 µg/mL) | 8 µM (≈ 14.4 µg/mL) | 147.6 µM | 4 µM (≈ 7.2 µg/mL) | 100% | 4 µM (≈ 7.2 µg/mL) | 8 µM (≈ 14.4 µg/mL) | 50% | 2 µM (≈ 3.6 µg/mL) | 4 µM (≈ 7.2 µg/mL) | 2 µM (≈ 3.6 µg/mL) | 44.2% | 14.321 min | 
6 | NCCCC[C@@H](NC(=O)[C@H](N)Cc1c[nH]c2ccccc12)C(=O)N[C@H](Cc1c[nH]c2ccccc12)C(=O)N[C@H](CCCCN)C(=O)N[C@H](Cc1c[nH]c2ccccc12)C(=O)NCC(=O)NCC(=O)N[C@H](Cc1c[nH]c2ccccc12)C(=O)N[C@H](CCCCN)C(=O)N[C@H](Cc1c[nH]c2ccccc12)C(=O)N[C@H](CCCCN)C(=O)N[C@H](Cc1c[nH]c2ccccc12)C(N)=O | 8 µM (≈ 14.1 µg/mL) | 32 µM (≈ 56.4 µg/mL) | 100% |  | 8 µM (≈ 14.1 µg/mL) | 4 µM (≈ 7.04 µg/mL) | 8 µM (≈ 14.1 µg/mL) | 4 µM (≈ 7.04 µg/mL) | 66.3 µM | 4 µM (≈ 7.04 µg/mL) | 100% | 4 µM (≈ 7.04 µg/mL) | 8 µM (≈ 14.1 µg/mL) |  | 8 µM (≈ 14.1 µg/mL) | 4 µM (≈ 7.04 µg/mL) | 2 µM (≈ 3.52 µg/mL) |  | 14.321 min | Not Active
7 | NCCCC[C@@H](NC(=O)[C@H](N)Cc1c[nH]c2ccccc12)C(=O)N[C@H](Cc1c[nH]c2ccccc12)C(=O)N[C@H](CCCCN)C(=O)N[C@H](Cc1c[nH]c2ccccc12)C(=O)N1CCC[C@H]1C(=O)NCC(=O)N[C@H](Cc1c[nH]c2ccccc12)C(=O)N[C@H](CCCCN)C(=O)N[C@H](Cc1c[nH]c2ccccc12)C(=O)N[C@H](CCCCN)C(=O)N[C@H](Cc1c[nH]c2ccccc12)C(N)=O | 8 µM (≈ 14.4 µg/mL) | 32 µM (≈ 57.6 µg/mL) | 100% | 63.8% | 8 µM (≈ 14.4 µg/mL) | 8 µM (≈ 14.4 µg/mL) | 8 µM (≈ 14.4 µg/mL) | 4 µM (≈ 7.2 µg/mL) | 46 µM | 8 µM (≈ 14.4 µg/mL) | 100% | 4 µM (≈ 7.2 µg/mL) | 8 µM (≈ 14.4 µg/mL) | 30.1% | 8 µM (≈ 14.4 µg/mL) | 4 µM (≈ 7.2 µg/mL) | 2 µM (≈ 3.6 µg/mL) | 63% | 14.321 min | Not Active
